# Test results from patent US6469040B2, “Method of using cyclooxygenase-2 inhibitors in the treatment and prevention of neoplasia” (G.D. Searle & Co., priority 1997, dated 2002).
# How the values were obtained:
# PC-3 cells = assay: PC-3 human prostate cancer cell tumors in nude mice; assay type: in vivo; settings: 20 mg/kg/day in water from day 28, after 45 days
# Method: (§1) Two human prostate cancer cell lines (PC-3 and LNCaP) were obtained (ATCC) to determine the efficacy of cyclooxygenase-2 inhibitors to inhibit tumor growth in a therapeutic model. In addition, the LNCaP cell line secretes prostate serum antigen (PSA) when grown in nude mice.
# PC-3 cells (10^6 cells/0.2 ml of 30% matrigel) in RPMI 1640 medium was injected on the back of nude mice. […] After 45 days, PGE2 and TXB2 were measured.
# LNCaP = LNCaP human prostate cancer cell tumors in nude mice; assay type: in vivo; settings: 6 mg/kg/day in drinking water
# From the text: as §1
# PSA level was reduced to approximately 50% as judged by western blotting.
# [1] = system: Lewis Lung carcinoma cells; settings: CTX 50 mg/kg injected on days 5, 7 and 9
# Method: Lewis Lung carcinoma cells (2.5×10^6 cells) prepared from a brei carried in C57BL/6 mice were injected subcutaneously into the hind legs of mice. […] Cyclophosphamide (CTX) was injected to mice on days 5,7 and 9 after the implantation of the tumor at a dose of 50 mg/kg. Tumor volume was determined during the study. The % inhibition was calculated as above.
smiles,measurement,setting,value
"NS(=O)(=O)c1ccc(-n2nc(C(F)F)cc2-c2ccc(Cl)cc2)cc1 [COX-2 inhibitor, 4-[5-(4-chlorophenyl)-3-(difluoromethyl)-1H-pyrazol-1-yl]benzenesulfonamide]",PGE2 level reduction,PC-3 cells,80-90%
same,TXB2 level reduction,PC-3 cells,80-90%
same,inhibition of growth of the tumor,LNCaP; day 58,55%
same,PSA level reduced to,LNCaP; judged by western blotting,approximately 50%
"O=P1(N(CCCl)CCCl)NCCCO1 (centres unmarked) [CTX, Cyclophosphamide]",Tumor Volume (Day 22) % Inhibition,[1],57%
